From US20220160651A1, “RAPIDLY IMPROVING ENDOTHELIAL FUNCTION, REDUCING ARTERIAL STIFFNESS AND REVERSING CALCIFICATION OF BLOOD VESSELS BY ADMINISTERING VITAMIN K” (KAYDENCE PHARMA AS, priority 2019, published 2022)
Where “and” joins values, the source holds several entries; their conditions need not be identical. Equal entries are not always repeated.

Key:
[1] = test system: kidney transplantation patients; test: Clinical study: non-invasive pulse wave velocity measurement of arterial stiffness; format: in vivo, human; details: 360 ug/day, after 8 weeks of treatment, kidney transplant patients
Method: Clinical Study to study the efficacy and safety of Vitamin K2 supplementation on arterial stiffness, the rigidity of arterial walls, in kidney transplantation patients.
A clinical study was carried out. Arterial wall property measurements were taken at t=0 and t=8 weeks and show a dramatic improvement in arterial wall flexibility. This is good support for concluding that the ingestion of vitamin K, even over this short period, is an effective way of improving endothelial function, reducing arterial stiffness and reducing calcification. […] It is surprising and unexpected because calcification is a slow progressive process and it was thought that reversing this process would also be slow and progressive.
Participants were enrolled in a clinical trial in which the effects of vitamin K2 were determined for patients who had recently undergone a kidney transplant. At the beginning of the study, patients were subjected to a non-invasive pulse wave velocity measurement to measure arterial stiffness/flexibility, as well as blood analysis. The study participants were then instructed to receive a specific daily dose of MenaQ7 vitamin K2 menaquinone-7 (360 ug/day) for a total of 8 weeks. At the end of 8 weeks, patients were again examined with a follow-up examination, a non-invasive pulse wave velocity measurement and blood analysis and drug treatment was discontinued.

[2] = test system: ApoE/LDLR−/− mice; test: MRI-based assessment of NO-dependent vasodilatation in BCA and LCA after acetylcholine (Example 2); format: in vivo; details: two months, 25 min after Ach
Method: The effects of low-doses (0.03 mg/kg b.w./day) as well as high-doses (10 mg/kg b.w./day) of vitamin K2 (MK-7), on endothelial function in mice with pre-established atherosclerosis was assessed. The mice were treated with K2 (MK-7) for two months and endothelial function was analyzed in vivo based on functional study (MRI based assessment of NO-dependent vasodilation) as well as by biochemical analysis (plasma nitrate and nitrite concentration). In addition, a comprehensive qualitative and quantitative histological analysis of the effects of K2 (MK-7) on vascular wall structure and atherosclerosis plaque composition was performed.
Endpoint assays: Magnetic resonance imaging (MRI)-based assessment of nitric oxide (NO)-dependent vasodilatation in brachiocephalic (BCA) and left common carotid artery (LCA) after acetylcholine (Ach) administration—by MRI 9.4T scanner, total time of measurements: 114 h (1.5 h per animal), acetylcholine (Ach, 16.6 mg/kg b.w.)
Studies were performed on 4-month old female ApoE/LDLR−/− mice, the model initially described by Ishibashi S, Herz J, Maeda N, Goldstein J, Brown M. The two-receptor model of lipoprotein clearance: tests of the hypothesis in “knockout” mice lacking the low density lipoprotein receptor, apolipoprotein E, or both proteins. Proc Natl Acad Sci USA 1994; 10:4431-5., and extensively characterized in previous studies, [see Kostogrys RB, Franczyk-Zarow M, Gasior-Glogowska M, Kus E, Jasztal A, Wrobel T P, et al. Anti-atherosclerotic effects of pravastatin in brachiocephalic artery in comparison with en face aorta and aortic roots in ApoE/LDLR−/− mice. Pharmacol Reports 2017; 69:112-8. doi:10.1016/j.pharep.2016.09.014; Tyrankiewicz U, Skorka T, Orzylowska A, Jablonska M, Jasinski K, Jasztal A, et al. Comprehensive MRI for the detection of subtle alterations in diastolic cardiac function in apoE/LDLR −/− mice with advanced atherosclerosis. […] End-diastolic volumes of BCA and LCA were analyzed using ImageJ software (1.46r NIH Bethesda, Md., USA) and scripts written in Matlab (MathWorks, Natick, Mass., USA) (FIG. 1A).

[3] = test system: thrombin generation in platelet-poor mice plasma; test: Thrombin generation by calibrated automated thrombogram (CAT); format: in vivo; details: either dose (0.03 or 10 mg/kg b.w./day), eight weeks
Method: Thrombin generation was measured in platelet-poor mice plasma using calibrated automated thrombography (CAT) technique as described in Hemker H C, Giesen P, Al Dieri R, Regnault V, de Smedt E, Wagenvoord R, et al. Calibrated automated thrombin generation measurement in clotting plasma. Pathophysiol Haemost Thromb 2003; 33:4-15. doi:71636. Thrombin generation was activated by mixing 21 μl of diluted plasma (1:1 with BSAS buffer) with 7 μIL of fluorogenic substrate (Z-Gly-Gly-Arg-AMC, 16.6 mM) and 14 μl of trigger solution containing phospholipids, tissue factor and CaCl2 (4 μM, […] and 16.6 mM, respectively). In the calibration wells, the 14 μl of reagents were replaced with calibrator (102 nM). Immediately after the activation, 5 μl of the mixture was pipetted on paper disks in a flat bottom 96-well polystyrene plate and covered with 40 μl of mineral oil. Fluorescent signals were measured using the Fluoroskan Ascent software (Thermo Labsystems, Helsinki, Finland) and transformed into thrombin concentration as described in Hemker H C, Kremers R. Data management in Thrombin Generation. Thromb Res 2013; 131:3-11. doi:10.1016/j.thromres.2012.10.011. The parameters analyzed included endogenous thrombin potential (ETP), peak thrombin concentration (peak), and lag time.

In the case of `CC(C)=CCC/C(C)=C/CC/C(C)=C/CC/C(C)=C/CC/C(C)=C/CC/C(C)=C/CC/C(C)=C/CC1=C(C)C(=O)c2ccccc2C1=O` [MK-7, menaquinone-7], the “mean reduction in measured pulse-wave velocity” value [1] is reported as 30%, the “vessel volume change of BCA after Ach injection” value ([2]; high dose 10 mg/kg b.w./day) is reported as 3.12% and the “vessel volume change of LCA after Ach injection” value ([2]; high dose 10 mg/kg b.w./day) is reported as 4.45%. For the same compound, the “vessel volume change of LCA after Ach injection” value ([2]; low dose 0.03 mg/kg b.w./day, listed as vitamin MK-7, 0.03 mg/kg/day) was ~−3% and −3.92% and the thrombin generation [3] was “did not affect”.
